Reference: PubChem BioAssay (NCI)
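Method: 48-hour compound exposure of cells in 96-well plates, five concentrations, linear interpolation of endpoints. Abbreviation: GI50, concentration required for 50% inhibition of growth. Definition used: TGI = concentration required for complete inhibition of growth.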

Key:
Test in all cases: NCI-60 cell line screen, 48 h
[1] = system: 786-0 renal
[2] = system: MCF7 breast
[3] = system: MDA-MB-468 breast
[4] = system: RXF 393 renal
[5] = system: EKVX NSCLC
[6] = system: SW-620 colon
[7] = system: CAKI-1 renal
[8] = system: SF-539 CNS
[9] = system: LOX IMVI melanoma
[10] = system: MDA-MB-231 breast
[11] = system: DU-145 prostate
[12] = system: TK-10 renal
[13] = system: OVCAR-4 ovarian
[14] = system: OVCAR-5 ovarian
[15] = system: PC-3 prostate
[16] = system: SK-OV-3 ovarian
[17] = system: K-562 leukemia
[18] = system: HCT-15 colon
[19] = system: SNB-75 CNS
[20] = system: SK-MEL-5 melanoma
[21] = system: MALME-3M melanoma
[22] = system: A498 renal
[23] = system: OVCAR-3 ovarian
[24] = system: T-47D breast
[25] = system: NCI-H226 lung
[26] = system: UO-31 renal
[27] = system: UACC-62 melanoma
[28] = system: HL-60(TB) leukemia
[29] = system: SK-MEL-28 melanoma
[30] = system: OVCAR-8 ovarian
[31] = system: SK-MEL-2 melanoma
[32] = system: ACHN renal
[33] = system: NCI-H23 lung
[34] = system: HT29 colon
[35] = system: UACC-257 melanoma
[36] = system: CCRF-CEM leukemia
[37] = system: MDA-MB-435
[38] = system: SR leukemia
[39] = system: HOP-62 NSCLC
[40] = system: U251 CNS
[41] = system: RPMI-8226 leukemia
[42] = system: IGROV1 ovarian
[43] = system: SNB-19 CNS
[44] = system: HCC-2998 colon
[45] = system: MOLT-4 leukemia
[46] = system: COLO 205 colon
[47] = system: M14 melanoma
[48] = system: A549 NSCLC
[49] = system: SN12C renal
[50] = system: SF-268 CNS
[51] = system: SF-295 CNS
[52] = system: NCI-H460 lung
[53] = system: HOP-92 NSCLC
[54] = system: NCI-H522 lung

## C=C1CC[C@@H]2[C@]3(C)COC(c4cn(-c5ccccc5)nc4-c4cccc([N+](=O)[O-])c4)O[C@@H]3CC[C@@]2(C)[C@@H]1C/C=C1/C(=O)OC[C@H]1O (stereo partly drawn)
[1]
  GI50: 3.04 µM
  TGI: 10.3 µM
[2]
  GI50: 2.64 µM
  TGI: > 100 µM
[3]
  GI50: 1.76 µM
  TGI: 3.52 µM
[4]
  GI50: 1.62 µM
  TGI: 3.2 µM
[5]
  GI50: 2.75 µM
  TGI: 7.98 µM
[6]
  GI50: 2.21 µM
  TGI: 5.13 µM
[7]
  GI50: 2.81 µM
  TGI: > 100 µM
[8]
  GI50: 1.74 µM
  TGI: 3.18 µM
[9]
  GI50: 1.72 µM
  TGI: 3.34 µM
[10]
  GI50: 1.84 µM
  TGI: 3.44 µM
[11]
  GI50: 4.11 µM
  TGI: 24.3 µM
[12]
  GI50: 2.22 µM
  TGI: 5.82 µM
[13]
  GI50: 4.05 µM
  TGI: > 100 µM
[14]
  GI50: 2.06 µM
  TGI: 5.05 µM
[15]
  GI50: 2.75 µM
  TGI: 9.04 µM
[16]
  GI50: 29.8 µM
  TGI: > 100 µM
[17]
  GI50: 2.16 µM
  TGI: > 100 µM
[18]
  GI50: 1.74 µM
  TGI: 3.58 µM
[19]
  GI50: 7.34 µM
  TGI: 50.1 µM
[20]
  GI50: 1.63 µM
  TGI: 3 µM
[21]
  GI50: 1.78 µM
  TGI: 3.55 µM
[22]
  GI50: 18.9 µM
  TGI: 45.4 µM
[23]
  GI50: 1.87 µM
  TGI: 3.75 µM
[24]
  GI50: 1.76 µM
  TGI: 5.02 µM
[25]
  GI50: 2.38 µM
  TGI: 6.59 µM
[26]
  GI50: 1.82 µM
  TGI: 5.46 µM
[27]
  GI50: 1.69 µM
  TGI: 3.46 µM
[28]
  GI50: 1.73 µM
  TGI: > 100 µM
[29]
  GI50: 2.04 µM
  TGI: 4.06 µM
[30]
  GI50: 1.9 µM
  TGI: 5.04 µM
[31]
  GI50: 1.78 µM
  TGI: 3.51 µM
[32]
  GI50: 1.89 µM
  TGI: 3.62 µM
[33]
  GI50: 1.83 µM
  TGI: 3.55 µM
[34]
  GI50: 1.82 µM
  TGI: 4.26 µM
[35]
  GI50: 1.8 µM
  TGI: 3.68 µM
[36]
  GI50: 1.14 µM
  TGI: 5.01 µM
[37]
  GI50: 3.03 µM
  TGI: 18.3 µM
[38]
  GI50: 3.46 µM
  TGI: > 100 µM
[39]
  GI50: 3.15 µM
  TGI: 12.4 µM
[40]
  GI50: 1.74 µM
  TGI: 3.35 µM
[41]
  GI50: 2.45 µM
  TGI: > 100 µM
[42]
  GI50: 2.08 µM
  TGI: 4.27 µM
[43]
  GI50: 3.65 µM
  TGI: 15 µM
[44]
  GI50: 1.92 µM
  TGI: 3.53 µM
[45]
  GI50: 2.87 µM
  TGI: > 100 µM
[46]
  GI50: 2.41 µM
  TGI: 5.06 µM
[47]
  GI50: 2.08 µM
  TGI: 4.52 µM
[48]
  GI50: 3.62 µM
  TGI: > 100 µM
[49]
  GI50: 2.93 µM
  TGI: 10.3 µM
[50]
  GI50: 7.65 µM
  TGI: > 100 µM
[51]
  GI50: 1.68 µM
  TGI: 3.19 µM
[52]
  GI50: 2.27 µM
  TGI: 4.8 µM
[53]
  GI50: 1.86 µM
  TGI: 3.64 µM
[54]
  GI50: 1.75 µM
  TGI: 3.41 µM
